From patent publication US20230141718A1, “METHODS OF TREATING GLIOBLASTOMA” (CELGENE QUANTICEL RESEARCH, INC., priority 2021, published 2023)

What was measured:
[1] = tested on: CCR1 (C-C chemokine receptor type 1) mRNA; test: Blood CCR1 mRNA pharmacodynamics, CC-90010-GBM-001; format: in vivo, human
Protocol: (§1) The primary objectives of the study in this example were determination of tumor tissue concentration and plasma pharmacokinetics (PK) of Compound A. The secondary and exploratory objectives included safety, antitumor activity, cerebrospinal fluid concentration, and pharmacodynamics (PD).
(§2) Patients were treated with Compound A at 30 mg daily on Day 1 to Day 4 prior to undergoing indicated tumor resection and to maintain platelet count above the minimum of […] recommended for surgery (Part A, preoperative treatment). Following recovery from surgery and a minimum of 4 weeks from the first dose of Compound A, subjects who were fit to continue were treated with Compound A at 45 mg on a 4 days on/24 days off schedule (180 mg per 28-day cycle). Maintenance treatment continued until disease progression, unacceptable toxicity, or withdrawal of consent.
(§3) Blood HEXIM1 (hexamethylene bis-acetamide-inducible protein 1) mRNA was increased at 72-96 hours following first dose, and the percentage increase correlated with plasma concentration of Compound A at surgery. Tumor HEXIM1 RNA increased in 10 of 11 patients. Additionally, blood HEXIM1 mRNA expression was increased in all subjects at 72-96 hours following the first dose. Percentage HEXIM1 increase was related to plasma Compound A concentration at biopsy.

[2] = Safety (TRAEs/TEAEs), CC-90010-GBM-002 Parts A and B; format: in vivo
Excerpt: This was then followed by a break in treatment therapy, e.g., from 1 to up to 4 weeks. […] Adjuvant therapy cycles were repeated from 2 to 6 times. After adjuvant therapy, was a monotherapy treatment.
The demographics and characteristics of treated patients are described in the below table.

[3] = tested on: HEXIM1 (hexamethylene bis-acetamide-inducible protein 1) mRNA; test: Blood and tumor HEXIM1 mRNA pharmacodynamics, CC-90010-GBM-001; format: in vivo, human
Protocol: as §1, §2, §3

SMILES: Cn1cc(-c2cc(S(C)(=O)=O)ccc2OCC2CC2)c2ccccc2c1=O [Compound A, 4-[2-(cyclopropylmethoxy)-5-methylsulfonylphenyl]-2-methylisoquinolin-1-one]
- Blood CCR1 mRNA reduction ([1]; after Dose 4): ≥ 50%
- Blood CCR1 mRNA, % of baseline ([1]; after Dose 4, standard deviation 28.5): 45.8%
- CCR1 downregulation ([1]; following first and last dose of ≥30 mg, cycle 1, CC-90010-GBM-001 (FIG. 5)): ≥ 50%
- patients with Grade 3/4 TRAEs ([2]; Part A adjuvant cohort): 56%
- patients with TEAEs leading to treatment discontinuation ([2]; Part A adjuvant cohort): 11%
- patients with any-grade gastrointestinal TRAEs ([2]; Part A adjuvant cohort): 78%
- patients with grade 3/4 diarrhea ([2]; Part A adjuvant cohort): one
- patients with thrombocytopenia TRAE, any grade ([2]; Part A adjuvant cohort): 72%
- patients with thrombocytopenia TRAE, grade 3/4 ([2]; Part A adjuvant cohort): 50%
- patients with any-grade TRAEs ([2]; Part A adjuvant cohort (Compound A + TMZ)): 94%
- patients with Grade 3/4 TRAEs ([2]; Part A concomitant cohort): 64%
- patients with TEAEs leading to treatment discontinuation ([2]; Part A concomitant cohort): 7%
- patients with gastrointestinal TRAEs ([2]; Part A concomitant cohort): 93%
- patients with grade 3/4 TRAE of diarrhea ([2]; Part A concomitant cohort): 7%
- patients with nausea, any-grade TRAE ([2]; Part A concomitant cohort): 79%
- patients with thrombocytopenia, any grade ([2]; Part A concomitant cohort): 71%
- patients with thrombocytopenia, grade 3/4 ([2]; Part A concomitant cohort): 50%
- patients with any-grade TRAEs ([2]; Part A concomitant cohort (Compound A + TMZ + RT)): 100%
- treatment-related deaths ([2]; Part A, both cohorts): no treatment-related deaths
- patients with Grade 3/4 TRAEs related to Compound A ([2]; Part B): 29%
- patients with Grade 3/4 neutropenia related to Compound A ([2]; Part B): 18%
- patients with Grade 3/4 thrombocytopenia related to Compound A ([2]; Part B): 18%
- patients with TRAE leading to treatment discontinuation ([2]; Part B arm A): 4%
- patients with TRAEs related to Compound A ([2]; Part B arm A): 86%
- patients with diarrhea related to Compound A ([2]; Part B arm A): 43%
- patients with nausea related to Compound A ([2]; Part B arm A): 46%
- patients with thrombocytopenia related to Compound A ([2]; Part B arm A): 46%
- tolerability in long-term follow-up ([2]; adjuvant Compound A plus TMZ and concomitant Compound A plus TMZ and RT): well tolerated
- Blood HEXIM1 mRNA change ([3]; 72-96 hours following first dose): increased
- HEXIM1 mRNA increased in resected brain tumor tissue versus archival tissue, patients ([3]; group P=0.00093): 15 of 18
- Tumor HEXIM1 RNA increased, patients ([3]; tumor): 10 of 11
